The text below walks through data of patent US20240336654A1, “ANTIMICROBIAL PEPTIDOMIMETICS” (SPEXIS AG, priority 2021, published 2024).

Holding throughout (assay type): cell-based
Data set [1] concerns human red blood cells (hRBC). In outline:
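Percent hemolysis derived from OD540 of supernatants relative to full lysis by 2.5% Triton X-100 (PBS baseline). Washed fresh human erythrocytes (20% v/v) were exposed to 200 μg/mL peptide for 1 h at 37 °C with shaking.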

Data set [2] concerns Klebsiella pneumoniae SSI3010. In outline: (§1)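 The MIC is the lowest peptide concentration, in μg/mL, with no visible growth after 18-20 h incubation at 35 °C. Serial two-fold peptide dilutions in water with 0.002% P-80 final were added to bacteria in cation-adjusted MHII broth, about 5×10^5 CFU/mL, following modified CLSI microdilution.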
The test system of data set [3] is Escherichia coli MCR-1 Af 45. In outline: as §1
In data set [4] the test system is Escherichia coli ATCC 25922. In outline:
as §1

Setting [5] is: red cells of human, 1 h, 200 μg/mL.
The mark [6] stands for this setting: Mueller-Hinton broth II, no visible growth after 18-20 hours at 35° C.

Where two headings read alike, the source gives them in different places. Where a SMILES comes first, the peptide text is derived from it. Bridges are numbered along the chain shown (N, C = ends). Where no end group is shown, it is not given here. [ ]: non-standard residue; d: D form. The star is where a group is joined. Val(Nα-amidino) = CC(C)[C@H](NC(=N)N)C(=O)*; Gly(cPent) = N[C@H](C(=O)O)C1CCCC1; Hyp = O=C(O)[C@@H]1C[C@@H](O)CN1; Pen = CC(C)(S)[C@H](N)C(=O)O; dDab = NCC[C@@H](N)C(=O)O; Orn = NCCC[C@H](N)C(=O)O; Dab = NCC[C@H](N)C(=O)O

For the compound `CC[C@H](C)[C@H](NC(=O)[C@@H]1C[C@@H](O)CN1C(=O)[C@@H](NC(=N)N)C(C)C)C(=O)N[C@@H]1C(=O)N[C@@H](Cc2ccc(O)cc2)C(=O)N[C@@H]([C@@H](C)O)C(=O)N[C@@H](CC(N)=O)C(=O)N[C@@H](CCCNC(=N)N)C(=O)N[C@@H](CCN)C(=O)N[C@@H]([C@@H](C)O)C(=O)N[C@H](CCN)C(=O)N[C@@H](CCCN)C(=O)N[C@@H](CCN)C(=O)N[C@@H]([C@@H](C)O)C(=O)N[C@H](C(=O)N[C@@H](Cc2ccc(O)cc2)C(=O)O)CSSC1(C)C` [Example 133, Gua-Val-Hyp-Ile-Pen-Tyr-Thr-Asn-Arg-Dab-Thr-^DDab-Orn-Dab-Thr-Cys-Tyr] ({Val(Nα-amidino)}-[Hyp]I[Pen]YTNR[Dab]T[dDab][Orn][Dab]TCY-OH; disulfide 3-14), the “Hemolysis at 0.2 g/L” value in data set [1] (setting [5]) was below 1%. Also, the “Klebsiella pneumoniae SSI3010 MIC” value in data set [2] (SSI3010) turned out to be 0.25 µg/mL. Moreover, the “Escherichia coli MCR-1 Af45 MIC” value in data set [3] (MCR-1 Af 45) came to 0.125 µg/mL. Further, the “Escherichia coli ATCC 25922 MIC” value in data set [4] (ATCC 25922) came out at 0.25 µg/mL.
On to `CC(C)[C@H](NC(=N)N)C(=O)N1C[C@H](O)C[C@H]1C(=O)N[C@H](C(=O)N[C@@H]1C(=O)N[C@@H](Cc2ccc(O)cc2)C(=O)N[C@@H]([C@@H](C)O)C(=O)N[C@@H](CC(N)=O)C(=O)N[C@@H](CCCNC(=N)N)C(=O)N[C@@H](CCN)C(=O)N[C@@H]([C@@H](C)O)C(=O)N[C@H](CCN)C(=O)N[C@@H](CO)C(=O)N[C@@H](CCN)C(=O)N[C@@H](CCN)C(=O)N[C@H](C(=O)N[C@@H](Cc2ccc(O)cc2)C(=O)O)CSSC1(C)C)C1CCCC1` [Example 134, Gua-Val-Hyp-Cpg-Pen-Tyr-Thr-Asn-Arg-Dab-Thr-^DDab-Ser-Dab-Dab-Cys-Tyr] ({Val(Nα-amidino)}-[Hyp][Gly(cPent)][Pen]YTNR[Dab]T[dDab]S[Dab][Dab]CY-OH; disulfide 3-14), for which the “Hemolysis at 0.2 g/L” value in data set [1] (setting [5]) was below 1%. Further, the “Klebsiella pneumoniae SSI3010 MIC” value in data set [2] (SSI3010) stood at 0.25 µg/mL. Also, the “Escherichia coli MCR-1 Af45 MIC” value in data set [3] (MCR-1 Af 45) turned out to be 0.125 µg/mL. Moreover, in data set [4] (ATCC 25922), the “Escherichia coli ATCC 25922 MIC” value amounted to 0.125 µg/mL.
As to `CC[C@H](C)[C@H](NC(=O)[C@@H]1C[C@@H](O)CN1C(=O)[C@@H](NC(=N)N)C(C)C)C(=O)N[C@H]1CCNC(=O)CC[C@@H](C(=O)N[C@@H](Cc2ccc(O)cc2)C(=O)O)NC(=O)[C@H](CCN)NC(=O)[C@H](CCN)NC(=O)[C@H](CCN)NC(=O)[C@@H](CCN)NC(=O)[C@H]([C@@H](C)O)NC(=O)[C@H](CCN)NC(=O)[C@H](CCCNC(=N)N)NC(=O)[C@H](CC(N)=O)NC(=O)[C@H]([C@@H](C)O)NC(=O)[C@H](Cc2ccc(O)cc2)NC1=O` [Example 135, Gua-Val-Hyp-Ile-Dab-Tyr-Thr-Asn-Arg-Dab-Thr-^DDab-Dab-Dab-Dab-Glu-Tyr] ({Val(Nα-amidino)}-[Hyp]I[Dab]YTNR[Dab]T[dDab][Dab][Dab][Dab]EY-OH; lactam 3-14), the “Hemolysis at 0.2 g/L” value in data set [1] (setting [5]) is recorded as below 1%. For the same compound, in data set [2] (SSI3010), the “Klebsiella pneumoniae SSI3010 MIC” value was determined as 0.125 µg/mL. The “Escherichia coli MCR-1 Af45 MIC” value in data set [3] (MCR-1 Af 45) came to 0.0625 µg/mL. Moreover, the “Escherichia coli ATCC 25922 MIC” value in data set [4] (ATCC 25922) turned out to be 0.125 µg/mL.
With `CC[C@H](C)[C@H](NC(=O)[C@@H]1C[C@@H](O)CN1C(=O)[C@@H](NC(=N)N)C(C)C)C(=O)N[C@H]1CCNC(=O)CC[C@@H](C(=O)N[C@@H](Cc2ccc(O)cc2)C(=O)O)NC(=O)[C@H](CCN)NC(=O)[C@H](CCN)NC(=O)[C@H](C(C)C)NC(=O)[C@@H](CCN)NC(=O)[C@H]([C@@H](C)O)NC(=O)[C@H](CCN)NC(=O)[C@H](CCCNC(=N)N)NC(=O)[C@H](CC(N)=O)NC(=O)[C@H]([C@@H](C)O)NC(=O)[C@H](Cc2ccc(O)cc2)NC1=O` [Example 136, Gua-Val-Hyp-Ile-Dab-Tyr-Thr-Asn-Arg-Dab-Thr-^DDab-Val-Dab-Dab-Glu-Tyr] ({Val(Nα-amidino)}-[Hyp]I[Dab]YTNR[Dab]T[dDab]V[Dab][Dab]EY-OH; lactam 3-14), in data set [1] (setting [5]), the “Hemolysis at 0.2 g/L” value is on record as below 1%. The “Klebsiella pneumoniae SSI3010 MIC” value in data set [2] (SSI3010) came out at 0.5 µg/mL. Further, the “Escherichia coli MCR-1 Af45 MIC” value in data set [3] (MCR-1 Af 45) stood at 0.125 µg/mL. Besides, the “Escherichia coli ATCC 25922 MIC” value in data set [4] (ATCC 25922) amounted to 0.125 µg/mL.
With “Val-Hyp-Ile-Pen-Tyr-Ser-Asn-Arg-Dab-Thr-^DDab-Lys-Dab-Ser-Cys-Tyr (V[Hyp]I[Pen]YSNR[Dab]T[dDab]K[Dab]SCY; disulfide 4-15) [Example 57]”, the “Hemolysis at 0.2 g/L” value in data set [1] is reported as below 1%. The “Klebsiella pneumoniae SSI3010 MIC” value in data set [2] (setting [6]) was 0.5 µg/mL. For the same compound, in data set [3] (setting [6]), the “Escherichia coli MCR-1 Af45 MIC” value stood at 0.25 µg/mL. The “Escherichia coli ATCC 25922 MIC” value in data set [4] (setting [6]) came to 0.25 µg/mL.
